According to patent US9340577B2, “HLA binding motifs and peptides and their uses” (priority 1992, dated 2016):
No end group written: not given here.

Legend:
Assay in all cases: biochemical
Assay type in all cases: binding
[1] = molecular target: HLA-A*0201 (HLA-A2.1) (Homo sapiens, UniProt P04439, D140Y/D185E/D98H/E176V/E277Q/G131W/G231S/I119V/I121R/I166T/I218V/L300P/L318F/N151K/N90K/P208A/P217A/Q86G/Q94H/R138H/R169H/T345S)
[2] = molecular target: A*0203 (Homo sapiens, UniProt P04439, A173T/D140Y/D185E/D98H/E277Q/G131W/G231S/I119V/I121R/I166T/I218V/L180W/L300P/L318F/N151K/N90K/P208A/P217A/Q86G/Q94H/R138H/R169H/T345S)
[3] = molecular target: A*0206 (Homo sapiens, UniProt P04439, D140Y/D185E/D98H/E176V/E277Q/F33Y/G131W/G231S/I119V/I121R/I166T/I218V/L300P/L318F/N151K/N90K/P208A/P217A/Q86G/Q94H/R138H/R169H/T345S)
[4] = molecular target: A*6802 (Homo sapiens, UniProt P04439, A269V/D140Y/D185E/E176V/E277Q/E87N/F33Y/G231S/I121R/I166T/I218V/L180W/L300P/L318F/N151K/P208A/P217A/Q86R/R138H/R169H/S129P/T345S/V36M)
[5] = molecular target: A*0202 (Homo sapiens, UniProt P04439, D140Y/D185E/D98H/E176V/E277Q/G131W/G231S/I119L/I121R/I166T/I218V/L180W/L300P/L318F/N151K/N90K/P208A/P217A/Q67R/Q86G/Q94H/R138H/R169H/T345S)

For QLSNGNRTV [Peptide 9013.0095], the IC50 [1] was 15100 nM, the IC50 [2] was 54 nM and the IC50 [3] was over 20000 nM. For the same compound, the IC50 [4] was over 20000 nM.
VAWDSVYYM [Peptide 1578.46] was tested, and the IC50 [5] was 603 nM, the IC50 [2] was 1330 nM and the IC50 [4] was 5150 nM.
Compound ILAEAMSKA [Peptide 1516.09] has an IC50 [1] of 72 nM, an IC50 [5] of 3.5 nM and an IC50 [2] of 2.8 nM. For the same compound, the IC50 [4] was 2650 nM.
For SLACSWGMVV [Peptide 1578.02], the IC50 [1] was 805 nM, the IC50 [5] was 22 nM and the IC50 [2] was 8.5 nM.
Work on VQWAYDHDI [Peptide 86.0205] yielded an IC50 [1] of 6900 nM, an IC50 [5] of 6840 nM and an IC50 [2] of over 20000 nM. It also gave an IC50 [4] of over 20000 nM.
WLRLLLTASLL [Peptide 9013.0254] showed an IC50 [1] of 3480 nM, an IC50 [2] of 12 nM and an IC50 [3] of 11800 nM. It also gave an IC50 [4] of over 20000 nM.
LLTFWNPPTTV [Peptide 9013.0259] gave an IC50 [1] of 762 nM, an IC50 [5] of 67 nM and an IC50 [2] of 58 nM. For the same compound, the IC50 [4] was 7540 nM.
Compound LLFWNPPTT [Peptide 9013.0007] has an IC50 [1] of 11 nM, an IC50 [5] of 15 nM and an IC50 [2] of 4.3 nM. It also gave an IC50 [4] of over 20000 nM.
ILIGVLVGVAL [Peptide 9013.0347] was tested, and the IC50 [1] was 1520 nM, the IC50 [2] was 1010 nM and the IC50 [3] was 120 nM. It also gave an IC50 [4] of over 20000 nM.
TLGIMIGVL [Peptide 9013.0108] was tested, and the IC50 [1] was 7420 nM, the IC50 [2] was 1700 nM and the IC50 [3] was 9060 nM. It also gave an IC50 [4] of over 20000 nM.
For SLLTFWNPPV [Peptide 9013.0118], the IC50 [1] was 208 nM, the IC50 [5] was 76 nM and the IC50 [2] was 159 nM. The IC50 [4] was 24 nM.
`CC[C@H](C)[C@H](NC(=O)[C@@H](NC(=O)[C@H](CC(C)C)NC(=O)[C@@H](N)CS)[C@@H](C)O)C(=O)N[C@@H](Cc1c[nH]cn1)C(=O)N[C@@H](Cc1ccc(O)cc1)C(=O)N[C@@H](CC(N)=O)C(=O)N[C@@H](Cc1ccc(O)cc1)C(=O)N[C@H](C(=O)O)C(C)C` [Peptide 1323.07] showed an IC50 [1] of 270 nM, an IC50 [5] of 216 nM and an IC50 [2] of 65 nM. For the same compound, the IC50 [4] was 640 nM.
In the case of `CC[C@H](C)[C@H](NC(=O)CN)C(=O)N[C@@H](CCSC)C(=O)N[C@H](C(=O)NCC(=O)N[C@H](C(=O)N[C@@H](CC(C)C)C(=O)N[C@H](C(=O)NCC(=O)N[C@H](C(=O)N[C@H](C(=O)O)C(C)C)C(C)C)C(C)C)C(C)C)[C@@H](C)CC` [Peptide 9013.0344], the IC50 [1] is reported as 563 nM, the IC50 [2] is reported as 82 nM and the IC50 [3] is reported as 912 nM.
For ILNDTGFYTL [Peptide 9013.0150], the IC50 [1] was 152 nM, the IC50 [5] was 2.1 nM and the IC50 [2] was 59 nM. For the same compound, the IC50 [4] was 11300 nM.
LIQPYSIYA [Peptide 86.0202] was tested, and the IC50 [1] was 1400 nM, the IC50 [2] was 2110 nM and the IC50 [3] was 428 nM. The IC50 [4] was 3300 nM.
For RVLQQLLFI [Peptide 1545.01], the IC50 [1] was 27 nM, the IC50 [2] was 24 nM and the IC50 [3] was 8.5 nM. For the same compound, the IC50 [4] was 10600 nM.
With TLELFIPNI [Peptide 9013.0060] the IC50 [1] was 29 nM, the IC50 [2] was 398 nM and the IC50 [3] was 84 nM.
Compound LQLSNDNRV [Peptide 9013.0072] has an IC50 [1] of over 20000 nM, an IC50 [5] of 1700 nM and an IC50 [2] of over 20000 nM. For the same compound, the IC50 [4] was over 20000 nM.
VLFTCEPET [Peptide 9013.0045] was tested, and the IC50 [1] was 2540 nM, the IC50 [2] was 502 nM and the IC50 [3] was over 20000 nM. It also gave an IC50 [4] of over 20000 nM.
For KLLEKLLCI [Peptide 1578.15], the IC50 [2] was 15 nM, the IC50 [3] was 51 nM and the IC50 [4] was over 20000 nM.
KVTIESTPFNV [Peptide 9013.0265] was tested, and the IC50 [1] was 2580 nM, the IC50 [2] was 40 nM and the IC50 [3] was 93 nM. The IC50 [4] was 1550 nM.
ILNIIQNDT [Peptide 9013.0033] was tested, and the IC50 [1] was over 20000 nM, the IC50 [2] was 8010 nM and the IC50 [3] was over 20000 nM. For the same compound, the IC50 [4] was over 20000 nM.
Compound TIESTPFNVV [Peptide 9013.0130] has an IC50 [1] of 15600 nM, an IC50 [2] of 671 nM and an IC50 [3] of 3230 nM. For the same compound, the IC50 [4] was 305 nM.
Compound RLIIGYVIGT [Peptide 9013.0140] has an IC50 [1] of 1870 nM, an IC50 [2] of 636 nM and an IC50 [4] of 14600 nM.
With TVELFIPNITV [Peptide 9013.0300] the IC50 [1] was 8210 nM, the IC50 [2] was over 20000 nM and the IC50 [3] was 1640 nM. For the same compound, the IC50 [4] was 193 nM.
NLLYGPDDPTI [Peptide 9013.0310] gave an IC50 [1] of 9880 nM, an IC50 [2] of 8650 nM and an IC50 [3] of over 20000 nM. For the same compound, the IC50 [4] was over 20000 nM.
YTLHVIKSDV [Peptide 9013.0151] showed an IC50 [1] of 4370 nM, an IC50 [2] of 972 nM and an IC50 [3] of 54 nM. It also gave an IC50 [4] of 16 nM.
With YIDDYLRNL [Peptide 1578.39] the IC50 [5] was 27 nM, the IC50 [2] was 380 nM and the IC50 [4] was over 20000 nM.
FLKGCIISYV [Peptide 1578.43] was tested, and the IC50 [1] was 341 nM, the IC50 [5] was 0.85 nM and the IC50 [2] was 2 nM. For the same compound, the IC50 [4] was 795 nM.
In the case of VLAEAMSKA [Peptide 1539.07], the IC50 [1] is reported as 69 nM, the IC50 [5] is reported as 3.4 nM and the IC50 [2] is reported as 7.6 nM. For the same compound, the IC50 [4] was 4580 nM.
